The results in this text go back to US20210300943A1, “OGA INHIBITOR COMPOUNDS” (Janssen Pharmaceutica NV, priority 2018, published 2021).

Data set [1] has as its target T1, recombinant human Meningioma Expressed Antigen 5 (MGEA5), also referred to as O-GlcNAcase (OGA) (Homo sapiens, UniProt O60502).
T1 construct: Full length OGA enzyme was purchased at OnGene (cat #TP322411); purchased OnGene (so in the source)
T1 sequence (O60502 1-916): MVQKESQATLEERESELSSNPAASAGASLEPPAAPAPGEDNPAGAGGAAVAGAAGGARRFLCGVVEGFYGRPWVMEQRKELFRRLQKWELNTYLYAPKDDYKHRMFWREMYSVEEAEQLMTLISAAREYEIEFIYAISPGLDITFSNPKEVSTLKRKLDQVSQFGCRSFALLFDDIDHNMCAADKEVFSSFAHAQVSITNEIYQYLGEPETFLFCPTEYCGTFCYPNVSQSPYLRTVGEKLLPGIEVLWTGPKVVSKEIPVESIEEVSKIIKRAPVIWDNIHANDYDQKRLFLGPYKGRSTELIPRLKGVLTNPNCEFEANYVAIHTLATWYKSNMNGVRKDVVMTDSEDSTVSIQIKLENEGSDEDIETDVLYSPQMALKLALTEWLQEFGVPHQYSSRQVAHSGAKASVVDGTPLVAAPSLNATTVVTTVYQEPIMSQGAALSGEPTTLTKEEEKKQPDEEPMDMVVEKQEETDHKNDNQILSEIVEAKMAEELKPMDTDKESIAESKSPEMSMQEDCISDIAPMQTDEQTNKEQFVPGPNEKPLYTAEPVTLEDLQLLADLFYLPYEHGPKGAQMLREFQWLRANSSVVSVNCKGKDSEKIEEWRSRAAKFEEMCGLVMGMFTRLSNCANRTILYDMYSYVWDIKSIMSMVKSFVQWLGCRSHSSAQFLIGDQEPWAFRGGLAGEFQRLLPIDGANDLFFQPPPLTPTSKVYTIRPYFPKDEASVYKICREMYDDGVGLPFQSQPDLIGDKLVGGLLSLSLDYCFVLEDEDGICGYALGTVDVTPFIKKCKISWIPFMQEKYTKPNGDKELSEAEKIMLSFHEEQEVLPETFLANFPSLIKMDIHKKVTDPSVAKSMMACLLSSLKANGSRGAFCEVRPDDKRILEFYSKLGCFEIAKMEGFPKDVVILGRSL
Nature of the data set: OGA biochemical assay (inhibition of FM-GlcNAc hydrolysis, fluorescence). To be noted: for Enzymatic Emax (%) / Emax: maximal effect; for IC50: read-out: Enzymatic hOGA, pIC50 (converted); for Emax: read-out: Enzymatic Emax (%). In outline: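 Full-length recombinant OGA (2 nM) pre-incubated with compound 60 min at room temperature, then FM-GlcNAc (100 µM final) added in citrate/phosphate buffer pH 7.2 with 0.005% Tween-20. After 6 h at room temperature, stopped with carbonate pH 11.0; fluorescein read at 485/538 nm; IC50 and Hill coefficient from curve fit.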

For data set [2], the target named is T2, OGA (Homo sapiens, UniProt O60502).
T2 construct: endogenous in cells; host or cells: HEK293 cells inducible for P301L mutant human Tau (2N4R)
T2 sequence (O60502 1-916): T1 sequence (O60502 1-916)
The data set can be described thus: OGA cellular assay (ICC detection of O-GlcNAcylated proteins in HEK293 cells inducible for P301L mutant human Tau). Format: cell-based. As to conditions: for Emax: HEK293, HEK293 cells inducible for P301L mutant human Tau; for EC50: read-out: Cellular hOGA, pEC50 (converted). In short, it runs like this: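 HEK293 cells inducible for P301L Tau, in low-glucose assay medium, treated 6 h with compound at 0.2% DMSO. O-GlcNAcylated proteins detected by CTD110.6 immunostaining, imaged at 488 nm with Hoechst nuclear counts for toxicity. IC50 from non-linear regression, 200 uM Thiamet G as maximum.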

Where [3] appears, read: maximal effect, Thiamet G 200 uM as maximum.
Setting [4] is: HEK293 cells inducible for P301L mutant human Tau, 6 hours incubation.

Where a name gives a salt, the structure may show the parent alone.

By melting point is commonly meant the temperature of the solid-liquid transition. Compound `COc1cc(NCC2CCCN(C(C)c3cc4c(cc3F)OCCO4)C2)cc(C)n1` (stereo not drawn) (as salt: HCl) [Product 38] had a melting point of 164.7 °C.
The same measure, in the same setting: next, `Cc1cc(NCC2CCCN(C(C)c3ccc4c(n3)OCCO4)C2)cc(C)n1` (stereo not drawn) (as salt: HCl) [Product 21]: 193 °C.
One may read the Emax as the greatest response seen or fitted, relative to the assay's reference. In turn, `Cc1cc(C[C@H]2CCCN(C(C)c3ccc4c(n3)OCC(=O)N4)C2)cc(C)n1` (single isomer, unassigned) [Product 61] gave a melting point of 62.45 °C. In data set [1], the “Enzymatic Emax (%)” value is listed as 102% and the IC50 is 0.0398 µM. The same compound yielded an Emax in data set [2] (setting [3]) of 45%. The EC50 in data set [2] (setting [4]) was more than 1 µM.
For `Cc1cc(NCC2CCCN(C(C)c3cc4c(cc3F)OCCO4)C2)cc(C(F)(F)F)n1` (stereo not drawn) (as salt: HCl) [Product 99], the melting point was found to be 235.3 °C.
Same read-out and setting: under `COc1cc(NCC2CCCN(C(C)c3ccc4c(c3)OCC4)C2)cc(C)n1` (stereo not drawn) (as salt: HCl) [Product 30] stands 261.3 °C; under `Cc1cc(NCC2CCCN(C(C)c3ccc4c(c3)OCC4)C2)cc(C)n1` (stereo not drawn) (as salt: HCl) [Product 22], 248.4 °C.
Consider `Cc1cc(CC2(F)CCCN([C@H](C)c3ccc4c(n3)OCCO4)C2)cc(C)n1` (single isomer, unassigned) [Product 176], for which the maximal effect (Emax) is 99% in data set [1] and 69% in data set [2] (setting [3]). Further, the IC50 in data set [1] was 0.0158 µM. Moreover, the EC50 in data set [2] (setting [4]) is 0.126 µM.
On to `Cc1cc(C[C@H]2CCCN(C(C)c3ccc4c(n3)OCCO4)C2)cc(C)n1` (mixture of isomers) [Product 44], for which, in data set [1], the maximal response (Emax) is 101% and the IC50 is 0.00316 µM. Further, the Emax in data set [2] (setting [3]) was 91%. Further, the EC50 in data set [2] (setting [4]) is 0.02 µM.
For `Cc1cc(OC[C@H]2CCCN(C(C)c3cnc4c(c3)OCCN4)C2)cc(C)n1` (stereo partly drawn) [Product 147], in data set [1], the “Enzymatic hOGA; pIC50” value came out at 8.2 and the “Enzymatic Emax (%)” value was 100%. Further, the “Cellular hOGA; pEC50” value in data set [2] (setting [4]) was 8.0. In data set [2] (HEK293 cells inducible for P301L mutant human Tau, maximal effect, Thiamet G 200 uM as maximum), the “Cellular Emax (%)” value came out at 80%.
As for `Cc1cc([C@@H]2CCCN([C@H](C)c3ccc4c(n3)OCCO4)C2)cc(C)n1` (single isomer, unassigned) [Product 160], the Emax was found to be 89% in data set [1] and 5% in data set [2] (setting [3]). For the same compound, the IC50 in data set [1] was 2 µM. Further, in data set [2] (setting [4]), the EC50 was more than 1 µM.
As for `Cc1cc(NCC2CCCN(C(C)c3ccc4c(c3)OCC4)C2)cc(C)n1` (stereo not drawn) [Product 22], in data set [1], the Emax came to 104% and the IC50 is 0.00794 µM. The same compound displayed an Emax in data set [2] (setting [3]) of 82%. Further, in data set [2] (setting [4]), the EC50 was 0.00794 µM.
For the compound `Cc1cc(CN[C@H]2CCCN(C(C)c3nc4c(cc3F)OCCO4)C2)cc(C)n1` (stereo partly drawn) [Product 193], in data set [1], the maximal response (Emax) turned out to be 99% and the IC50 is 0.00316 µM. This compound also registered an Emax in data set [2] (setting [3]) of 95%. Besides, in data set [2] (setting [4]), the EC50 was 0.0316 µM.
As for `Cc1cc([C@H]2CCCN([C@@H](C)c3ccc4c(n3)OCCO4)C2)cc(C)n1` (single isomer, unassigned) [Product 159], the Emax in data set [1] stood at 91%; in data set [2] (setting [3]), 0%. The IC50 in data set [1] is 1.26 µM. Besides, the EC50 in data set [2] (setting [4]) was more than 1 µM.
On to `Cc1cc(OC2CCCN(C(C)c3ccc4c(n3)OCCO4)C2)cc(C(F)(F)F)n1` (stereo not drawn) [Product 138], for which, in data set [1], the Emax worked out at 101% and the IC50 was 0.126 µM. This compound returned an Emax in data set [2] (setting [3]) of 16%. In addition, in data set [2] (setting [4]), the EC50 is more than 1 µM.
As to `COc1cc(N[C@H]2CCCN(C(C)c3ccc4c(n3)OCCO4)C2)cc(C)n1` (stereo partly drawn) [Product 192], the Emax in data set [1] stood at 99%; in data set [2] (setting [3]), 91%. The IC50 in data set [1] is 0.00631 µM. Also, the EC50 in data set [2] (setting [4]) is 0.02 µM.
For the compound `Cc1cc([C@@H]2CCCN(C(C)c3ccc4c(n3)OCCO4)C2)cc(C)n1` (single isomer, unassigned) [Product 150], the figures for the maximum response (Emax) in data set [1] and in data set [2] (setting [3]) were 92% and 3%, respectively. In addition, the IC50 in data set [1] was 2 µM. In addition, in data set [2] (setting [4]), the EC50 is more than 1 µM.
`COc1cc(OC[C@H]2CCCN([C@H](C)c3ccc4c(n3)OCCO4)C2)cc(C)n1` (racemic) [Product 110]: in data set [1], the Emax is 102% and the IC50 is 0.0126 µM. Moreover, the Emax in data set [2] (setting [3]) stood at 68%. In addition, the EC50 in data set [2] (setting [4]) was 0.316 µM.
As to `COc1cc(NCC2CCCN(C(C)c3ccc4c(n3)OCCO4)C2)cc(C)n1` (stereo not drawn) (as salt: HCl) [Product 23], the melting point came out at 266.7 °C.
In the case of `Cc1cc(CO[C@@H]2CCCN([C@H](C)c3ccc4c(n3)OCCO4)C2)cc(C)n1` (mixture of isomers) [Product 112], the Emax in data set [1] turned out to be 98%; in data set [2] (setting [3]), 8%. In data set [1], the IC50 was 0.2 µM. Further, in data set [2] (setting [4]), the EC50 was more than 1 µM.
As for `Cc1cc(C2CCCN(C(C)c3cnc4c(c3)OCCN4)C2)cc(C)n1` (stereo not drawn) [Product 137], the results for the Emax in data set [1] and in data set [2] (setting [3]) were 101% and 83%, respectively. Moreover, in data set [1], the IC50 was 0.02 µM. For the same compound, the EC50 in data set [2] (setting [4]) was 0.0501 µM.
In the same order, the values of `Cc1cc(C[C@H]2CCCN(C(C)c3cnc4c(c3)OCC4)C2)cc(C)n1` (mixture of isomers) [Product 57] are 101%, 78%, 0.0126 µM and 0.158 µM.
The like results for `Cc1cc(OC[C@H]2CCCN(C(C)c3ccc4c(n3)OCCO4)C2)cc(C)n1` (single isomer, unassigned) [Product 139] were, in that order, 98%, 88%, 0.00794 µM and 0.02 µM.
The like results for `Cc1cc(CO[C@H]2CCCN([C@H](C)c3ccc4c(n3)OCCO4)C2)cc(C)n1` (mixture of isomers) [Product 111] were, in that order, 98%, 29%, 0.0126 µM and 0.316 µM.
Turning to `Cc1cc(C[C@H]2CCCN(C(C)c3ccc4c(c3)OCC4)C2)cc(C)n1` (mixture of isomers) [Product 47], the Emax in data set [1] was found to be 103%; in data set [2] (setting [3]), 81%. The IC50 in data set [1] is 0.00398 µM. Further, in data set [2] (setting [4]), the EC50 is 0.0158 µM.
In the case of `Cc1cc(C[C@H]2CCCN(C(C)c3cnc4c(c3)OCCO4)C2)cc(C)n1` (stereo partly drawn) [Product 130], the Emax in data set [1] came to 101%; in data set [2] (setting [3]), 83%. In addition, the IC50 in data set [1] is 0.00794 µM. Further, the EC50 in data set [2] (setting [4]) is 0.158 µM.
`Cc1cc(OC[C@H]2CCCN(C(C)c3ccc4c(n3)OCCO4)C2)cc(C)n1` (mixture of isomers) [Product 19]: in data set [1], the maximal response (Emax) was determined as 102% and the IC50 is 0.00794 µM. Also, the Emax in data set [2] (setting [3]) turned out to be 86%. The EC50 in data set [2] (setting [4]) is 0.0316 µM.
